# Data taken from ChEMBL document CHEMBL3272010, “Antimycotic imidazoles. 3. Synthesis and antimycotic properties of 1-[2-(aryloxyalkyl)-2-phenylethyl]-1H-imidazoles” (1977).
# Test system: Aspergillus fumigatus
# Experiment: Antifungal activity against Aspergillus fumigatus assessed as lowest dose required to total inhibition of fungal growth
# Format: functional
row,SMILES,GI
1,Clc1ccc(C(CCOc2ccccc2Br)Cn2ccnc2)c(Cl)c1.O=C(O)C(=O)O (centres undefined),>100 µg/mL
2,Clc1ccc(C(COc2ccc(Br)cc2)Cn2ccnc2)c(Cl)c1.O=[N+]([O-])O (centres undefined),100 µg/mL
3,Clc1ccc(C(COc2ccc(Cl)cc2Cl)Cn2ccnc2)cc1.O=[N+]([O-])O (centres undefined),100 µg/mL
4,Clc1ccc(OCC(Cn2ccnc2)c2ccc(Br)cc2)cc1.O=[N+]([O-])O (centres undefined),100 µg/mL
5,Clc1ccc(OCC(Cn2ccnc2)c2ccc(Cl)cc2Cl)cc1.O=[N+]([O-])O (centres undefined),10 µg/mL
6,Clc1ccc(C(COc2ccccc2Cl)Cn2ccnc2)c(Cl)c1.O=[N+]([O-])O (centres undefined),100 µg/mL

# Test system: Candida tropicalis
# Experiment: Antifungal activity against Candida tropicalis assessed as lowest dose required to total inhibition of fungal growth
# Format: functional
row,SMILES,GI
1,Clc1ccc(C(CCOc2ccccc2Br)Cn2ccnc2)c(Cl)c1.O=C(O)C(=O)O (centres undefined),>100 µg/mL
2,Clc1ccc(C(COc2ccc(Br)cc2)Cn2ccnc2)c(Cl)c1.O=[N+]([O-])O (centres undefined),>100 µg/mL
3,Clc1ccc(C(COc2ccc(Cl)cc2Cl)Cn2ccnc2)cc1.O=[N+]([O-])O (centres undefined),>100 µg/mL
4,Clc1ccc(OCC(Cn2ccnc2)c2ccc(Br)cc2)cc1.O=[N+]([O-])O (centres undefined),>100 µg/mL
5,Clc1ccc(OCC(Cn2ccnc2)c2ccc(Cl)cc2Cl)cc1.O=[N+]([O-])O (centres undefined),>100 µg/mL
6,Clc1ccc(C(COc2ccccc2Cl)Cn2ccnc2)c(Cl)c1.O=[N+]([O-])O (centres undefined),>100 µg/mL

# Test system: Candida albicans
# Experiment: Antifungal activity against Candida albicans assessed as lowest dose required to total inhibition of fungal growth
# Format: functional
row,SMILES,GI
1,Clc1ccc(C(CCOc2ccccc2Br)Cn2ccnc2)c(Cl)c1.O=C(O)C(=O)O (centres undefined),>100 µg/mL
2,Clc1ccc(C(COc2ccc(Br)cc2)Cn2ccnc2)c(Cl)c1.O=[N+]([O-])O (centres undefined),100 µg/mL
3,Clc1ccc(C(COc2ccc(Cl)cc2Cl)Cn2ccnc2)cc1.O=[N+]([O-])O (centres undefined),10 µg/mL
4,Clc1ccc(OCC(Cn2ccnc2)c2ccc(Br)cc2)cc1.O=[N+]([O-])O (centres undefined),100 µg/mL
5,Clc1ccc(OCC(Cn2ccnc2)c2ccc(Cl)cc2Cl)cc1.O=[N+]([O-])O (centres undefined),10 µg/mL
6,Clc1ccc(C(COc2ccccc2Cl)Cn2ccnc2)c(Cl)c1.O=[N+]([O-])O (centres undefined),100 µg/mL

# Test system: Staphylococcus haemolyticus
# Experiment: Antibaterial activity against Staphylococcus haemolyticus assessed as lowest dose required to total inhibition of bacterial growth
# Format: functional
row,SMILES,GI
1,Clc1ccc(C(CCOc2ccccc2Br)Cn2ccnc2)c(Cl)c1.O=C(O)C(=O)O (centres undefined),10 µg/mL
2,Clc1ccc(C(COc2ccc(Br)cc2)Cn2ccnc2)c(Cl)c1.O=[N+]([O-])O (centres undefined),10 µg/mL
3,Clc1ccc(C(COc2ccc(Cl)cc2Cl)Cn2ccnc2)cc1.O=[N+]([O-])O (centres undefined),10 µg/mL
4,Clc1ccc(OCC(Cn2ccnc2)c2ccc(Br)cc2)cc1.O=[N+]([O-])O (centres undefined),10 µg/mL
5,Clc1ccc(OCC(Cn2ccnc2)c2ccc(Cl)cc2Cl)cc1.O=[N+]([O-])O (centres undefined),10 µg/mL
6,Clc1ccc(C(COc2ccccc2Cl)Cn2ccnc2)c(Cl)c1.O=[N+]([O-])O (centres undefined),1 µg/mL

# Test system: Trichophyton rubrum
# Experiment: Antifungal activity against Trichophyton rubrum assessed as lowest dose required to total inhibition of fungal growth
# Format: functional
row,SMILES,GI
1,Clc1ccc(C(CCOc2ccccc2Br)Cn2ccnc2)c(Cl)c1.O=C(O)C(=O)O (centres undefined),<1 µg/mL
2,Clc1ccc(C(COc2ccc(Br)cc2)Cn2ccnc2)c(Cl)c1.O=[N+]([O-])O (centres undefined),<1 µg/mL
3,Clc1ccc(C(COc2ccc(Cl)cc2Cl)Cn2ccnc2)cc1.O=[N+]([O-])O (centres undefined),<1 µg/mL
4,Clc1ccc(OCC(Cn2ccnc2)c2ccc(Br)cc2)cc1.O=[N+]([O-])O (centres undefined),<1 µg/mL
5,Clc1ccc(OCC(Cn2ccnc2)c2ccc(Cl)cc2Cl)cc1.O=[N+]([O-])O (centres undefined),<1 µg/mL
6,Clc1ccc(C(COc2ccccc2Cl)Cn2ccnc2)c(Cl)c1.O=[N+]([O-])O (centres undefined),<1 µg/mL

# Test system: Microsporum canis
# Experiment: Antifungal activity against Microsporum canis assessed as lowest dose required to total inhibition of fungal growth
# Format: functional
row,SMILES,GI
1,Clc1ccc(C(CCOc2ccccc2Br)Cn2ccnc2)c(Cl)c1.O=C(O)C(=O)O (centres undefined),100 µg/mL
2,Clc1ccc(C(COc2ccc(Br)cc2)Cn2ccnc2)c(Cl)c1.O=[N+]([O-])O (centres undefined),<1 µg/mL
3,Clc1ccc(C(COc2ccc(Cl)cc2Cl)Cn2ccnc2)cc1.O=[N+]([O-])O (centres undefined),10 µg/mL
4,Clc1ccc(OCC(Cn2ccnc2)c2ccc(Br)cc2)cc1.O=[N+]([O-])O (centres undefined),10 µg/mL
5,Clc1ccc(OCC(Cn2ccnc2)c2ccc(Cl)cc2Cl)cc1.O=[N+]([O-])O (centres undefined),10 µg/mL
6,Clc1ccc(C(COc2ccccc2Cl)Cn2ccnc2)c(Cl)c1.O=[N+]([O-])O (centres undefined),10 µg/mL

# Test system: Sporothrix schenckii
# Experiment: Antifungal activity against Sporothrix schenckii assessed as lowest dose required to total inhibition of fungal growth
# Format: functional
row,SMILES,GI
1,Clc1ccc(C(CCOc2ccccc2Br)Cn2ccnc2)c(Cl)c1.O=C(O)C(=O)O (centres undefined),10 µg/mL
2,Clc1ccc(C(COc2ccc(Br)cc2)Cn2ccnc2)c(Cl)c1.O=[N+]([O-])O (centres undefined),100 µg/mL
3,Clc1ccc(C(COc2ccc(Cl)cc2Cl)Cn2ccnc2)cc1.O=[N+]([O-])O (centres undefined),10 µg/mL
4,Clc1ccc(OCC(Cn2ccnc2)c2ccc(Br)cc2)cc1.O=[N+]([O-])O (centres undefined),10 µg/mL
5,Clc1ccc(OCC(Cn2ccnc2)c2ccc(Cl)cc2Cl)cc1.O=[N+]([O-])O (centres undefined),10 µg/mL
6,Clc1ccc(C(COc2ccccc2Cl)Cn2ccnc2)c(Cl)c1.O=[N+]([O-])O (centres undefined),10 µg/mL

# Test system: Phialophora verrucosa
# Experiment: Antifungal activity against Phialophora verrucosa assessed as lowest dose required to total inhibition of fungal growth
# Format: functional
row,SMILES,GI
1,Clc1ccc(C(CCOc2ccccc2Br)Cn2ccnc2)c(Cl)c1.O=C(O)C(=O)O (centres undefined),100 µg/mL
2,Clc1ccc(C(COc2ccc(Br)cc2)Cn2ccnc2)c(Cl)c1.O=[N+]([O-])O (centres undefined),100 µg/mL
3,Clc1ccc(C(COc2ccc(Cl)cc2Cl)Cn2ccnc2)cc1.O=[N+]([O-])O (centres undefined),100 µg/mL
4,Clc1ccc(OCC(Cn2ccnc2)c2ccc(Br)cc2)cc1.O=[N+]([O-])O (centres undefined),100 µg/mL
5,Clc1ccc(OCC(Cn2ccnc2)c2ccc(Cl)cc2Cl)cc1.O=[N+]([O-])O (centres undefined),10 µg/mL
6,Clc1ccc(C(COc2ccccc2Cl)Cn2ccnc2)c(Cl)c1.O=[N+]([O-])O (centres undefined),100 µg/mL

# Test system: Saprolegnia
# Experiment: Antifungal activity against Saprolegnia species assessed as lowest dose required to total inhibition of fungal growth
# Format: functional
row,SMILES,GI
1,Clc1ccc(C(CCOc2ccccc2Br)Cn2ccnc2)c(Cl)c1.O=C(O)C(=O)O (centres undefined),100 µg/mL
2,Clc1ccc(C(COc2ccc(Br)cc2)Cn2ccnc2)c(Cl)c1.O=[N+]([O-])O (centres undefined),100 µg/mL
3,Clc1ccc(C(COc2ccc(Cl)cc2Cl)Cn2ccnc2)cc1.O=[N+]([O-])O (centres undefined),>100 µg/mL
4,Clc1ccc(OCC(Cn2ccnc2)c2ccc(Br)cc2)cc1.O=[N+]([O-])O (centres undefined),>100 µg/mL
5,Clc1ccc(OCC(Cn2ccnc2)c2ccc(Cl)cc2Cl)cc1.O=[N+]([O-])O (centres undefined),100 µg/mL
6,Clc1ccc(C(COc2ccccc2Cl)Cn2ccnc2)c(Cl)c1.O=[N+]([O-])O (centres undefined),100 µg/mL

# Test system: Erysipelothrix rhusiopathiae
# Experiment: Antibaterial activity against Erysipelothrix insidiosa assessed as lowest dose required to total inhibition of bacterial growth
# Format: functional
row,SMILES,GI
1,Clc1ccc(C(CCOc2ccccc2Br)Cn2ccnc2)c(Cl)c1.O=C(O)C(=O)O (centres undefined),<1 µg/mL
2,Clc1ccc(C(COc2ccc(Br)cc2)Cn2ccnc2)c(Cl)c1.O=[N+]([O-])O (centres undefined),<1 µg/mL
3,Clc1ccc(C(COc2ccc(Cl)cc2Cl)Cn2ccnc2)cc1.O=[N+]([O-])O (centres undefined),1 µg/mL
4,Clc1ccc(OCC(Cn2ccnc2)c2ccc(Br)cc2)cc1.O=[N+]([O-])O (centres undefined),<1 µg/mL
5,Clc1ccc(OCC(Cn2ccnc2)c2ccc(Cl)cc2Cl)cc1.O=[N+]([O-])O (centres undefined),<1 µg/mL
6,Clc1ccc(C(COc2ccccc2Cl)Cn2ccnc2)c(Cl)c1.O=[N+]([O-])O (centres undefined),<1 µg/mL

# Test system: Streptococcus pyogenes
# Experiment: Antibaterial activity against Streptococcus pyogenes assessed as lowest dose required to total inhibition of bacterial growth
# Format: functional
row,SMILES,GI
1,Clc1ccc(C(CCOc2ccccc2Br)Cn2ccnc2)c(Cl)c1.O=C(O)C(=O)O (centres undefined),<1 µg/mL
2,Clc1ccc(C(COc2ccc(Br)cc2)Cn2ccnc2)c(Cl)c1.O=[N+]([O-])O (centres undefined),<1 µg/mL
3,Clc1ccc(C(COc2ccc(Cl)cc2Cl)Cn2ccnc2)cc1.O=[N+]([O-])O (centres undefined),<1 µg/mL
4,Clc1ccc(OCC(Cn2ccnc2)c2ccc(Br)cc2)cc1.O=[N+]([O-])O (centres undefined),<1 µg/mL
5,Clc1ccc(OCC(Cn2ccnc2)c2ccc(Cl)cc2Cl)cc1.O=[N+]([O-])O (centres undefined),<1 µg/mL
6,Clc1ccc(C(COc2ccccc2Cl)Cn2ccnc2)c(Cl)c1.O=[N+]([O-])O (centres undefined),<1 µg/mL

# Test system: Mucor
# Experiment: Antifungal activity against Mucor species assessed as lowest dose required to total inhibition of fungal growth
# Format: functional
row,SMILES,GI
1,Clc1ccc(C(CCOc2ccccc2Br)Cn2ccnc2)c(Cl)c1.O=C(O)C(=O)O (centres undefined),>100 µg/mL
2,Clc1ccc(C(COc2ccc(Br)cc2)Cn2ccnc2)c(Cl)c1.O=[N+]([O-])O (centres undefined),100 µg/mL
3,Clc1ccc(C(COc2ccc(Cl)cc2Cl)Cn2ccnc2)cc1.O=[N+]([O-])O (centres undefined),>100 µg/mL
4,Clc1ccc(OCC(Cn2ccnc2)c2ccc(Br)cc2)cc1.O=[N+]([O-])O (centres undefined),>100 µg/mL
5,Clc1ccc(OCC(Cn2ccnc2)c2ccc(Cl)cc2Cl)cc1.O=[N+]([O-])O (centres undefined),100 µg/mL
6,Clc1ccc(C(COc2ccccc2Cl)Cn2ccnc2)c(Cl)c1.O=[N+]([O-])O (centres undefined),>100 µg/mL

# Test system: Trichophyton mentagrophytes
# Experiment: Antifungal activity against Trichophyton mentagrophytes assessed as lowest dose required to total inhibition of fungal growth
# Format: functional
row,SMILES,GI
1,Clc1ccc(C(CCOc2ccccc2Br)Cn2ccnc2)c(Cl)c1.O=C(O)C(=O)O (centres undefined),<1 µg/mL
2,Clc1ccc(C(COc2ccc(Br)cc2)Cn2ccnc2)c(Cl)c1.O=[N+]([O-])O (centres undefined),<1 µg/mL
3,Clc1ccc(C(COc2ccc(Cl)cc2Cl)Cn2ccnc2)cc1.O=[N+]([O-])O (centres undefined),<1 µg/mL
4,Clc1ccc(OCC(Cn2ccnc2)c2ccc(Br)cc2)cc1.O=[N+]([O-])O (centres undefined),<1 µg/mL
5,Clc1ccc(OCC(Cn2ccnc2)c2ccc(Cl)cc2Cl)cc1.O=[N+]([O-])O (centres undefined),<1 µg/mL
6,Clc1ccc(C(COc2ccccc2Cl)Cn2ccnc2)c(Cl)c1.O=[N+]([O-])O (centres undefined),<1 µg/mL

# Test system: Cryptococcus neoformans
# Experiment: Antifungal activity against Cryptococcus neoformans assessed as lowest dose required to total inhibition of fungal growth
# Format: functional
row,SMILES,GI
1,Clc1ccc(C(CCOc2ccccc2Br)Cn2ccnc2)c(Cl)c1.O=C(O)C(=O)O (centres undefined),<1 µg/mL
2,Clc1ccc(C(COc2ccc(Br)cc2)Cn2ccnc2)c(Cl)c1.O=[N+]([O-])O (centres undefined),<1 µg/mL
3,Clc1ccc(C(COc2ccc(Cl)cc2Cl)Cn2ccnc2)cc1.O=[N+]([O-])O (centres undefined),<1 µg/mL
4,Clc1ccc(OCC(Cn2ccnc2)c2ccc(Br)cc2)cc1.O=[N+]([O-])O (centres undefined),10 µg/mL
5,Clc1ccc(OCC(Cn2ccnc2)c2ccc(Cl)cc2Cl)cc1.O=[N+]([O-])O (centres undefined),<1 µg/mL
6,Clc1ccc(C(COc2ccccc2Cl)Cn2ccnc2)c(Cl)c1.O=[N+]([O-])O (centres undefined),<1 µg/mL
